In US20040171688A1, “Carboxylic acids and derivatives thereof and pharmaceutical compositions containing them” (priority 1997, published 2004):

Tests used:
HNF-4α [1] = target: T1, HNF-4α (Rattus norvegicus, UniProt P22449); experiment: Ligand binding assay with [3H]palmitoyl(16:0)-CoA on recombinant GST-HNF-4α(LBD) or His-HNF-4α
T1 construct: GST-HNF-4α(LBD) fusion protein consisting of amino acids 96-455 of wild type HNF-4α fused to GST; fused on or other part: Glutathione-S-transferase (GST) at the N-terminus of the LBD construct; 6-histidine tag on the full-length construct
T1 sequence (P22449 105-464 isoform P22449-2 limits assumed): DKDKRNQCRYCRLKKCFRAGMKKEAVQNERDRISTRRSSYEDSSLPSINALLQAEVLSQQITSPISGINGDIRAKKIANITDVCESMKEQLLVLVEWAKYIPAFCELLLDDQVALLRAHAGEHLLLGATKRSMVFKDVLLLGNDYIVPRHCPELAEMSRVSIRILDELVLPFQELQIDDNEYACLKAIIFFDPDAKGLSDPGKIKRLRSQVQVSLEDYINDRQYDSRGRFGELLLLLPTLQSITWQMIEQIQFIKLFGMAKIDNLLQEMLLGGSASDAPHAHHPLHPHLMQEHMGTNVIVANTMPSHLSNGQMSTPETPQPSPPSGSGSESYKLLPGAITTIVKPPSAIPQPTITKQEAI
Experimental: a. […] The respective recombinant proteins are incubated to equilibrium with [^3H]palmitoyl(16:0)-CoA (0.05 μCi) and with increasing nonlabeled palmitoyl(16:0)-CoA as indicated.
b. […] The respective recombinant proteins are incubated with 8 nM of [^3H]palmitoyl(16:0)-CoA (60 Ci/mmol) and with increasing nonlabeled myristoyl(14:0)-CoA as indicated. Percent bound refers to radiolabeled [^3H]palmitoyl(16:0)-CoA in the bound fraction. […] Percent bound refers to radiolabeled [^3H]palmitoyl(16:0)-CoA in the bound fraction.
Rat HNF-4α1 cDNA(pLEN4S)^1 was subcloned into the glutathione-S-transferase (GST) encoding pGEX-2T plasmid (Pharmacia) and the resultant plasmid was cleaved with smaI and AccI and religated to yield the GST-HNF-4α(LBD) fusion plasmid. […] The full length HNF-4α1 cDNA cloned into 6His-pET11d vector was expressed in E.coli BL21 (DE3)plysS.
Recombinant GST-HNF-4α(LBD) (100 pmol) or His-HNF-4α (100 pmol) were incubated for 60 min at 22° C. with [^3H]palmitoyl(16:0)-CoA (American RadiolabeledChemicals) in 100 μl of 10 mM phosphate buffer (pH 7.4). Competitor ligands or solvent carrier were added as indicated. Free and HNF-4α bound ^3[H]palmitoyl(16:0)-CoA were separated by […] and bound ligand was quantified by liquid scintillation counting. Nonspecific binding of [^3H]palmitoyl(16:0)-CoA was determined by its binding to the GST moiety or to carbonic anhydrase as nonrelevant protein.
Binding was exemplified with either the ligand binding domain of HNF-4α fused to glutathione-s-transferase (GST-HNF-4α(LBD)) or the full length HNF-4α protein tagged by 6 histidines (His-HNF-4α).

HNF-4α [2] = target: T2, HNF-4α (Rattus norvegicus, UniProt P22449); experiment: Transfection assay: COS-7 cells cotransfected with (C3P)3-TK-CAT reporter and pSG5-HNF-4α; type: cell-based; set-up: expressed in transfected cells; host or cells: COS-7; details: for EC50: proligands added to culture medium of COS-7 cells (FIG. 4b), read-out: EC50 of HNF-4α suppression (CAT activity); for inhibition of HNF-4α transcriptional activity, effectiveness in words: transfection assays, added to culture medium
T2 sequence (P22449 1-464 isoform P22449-2): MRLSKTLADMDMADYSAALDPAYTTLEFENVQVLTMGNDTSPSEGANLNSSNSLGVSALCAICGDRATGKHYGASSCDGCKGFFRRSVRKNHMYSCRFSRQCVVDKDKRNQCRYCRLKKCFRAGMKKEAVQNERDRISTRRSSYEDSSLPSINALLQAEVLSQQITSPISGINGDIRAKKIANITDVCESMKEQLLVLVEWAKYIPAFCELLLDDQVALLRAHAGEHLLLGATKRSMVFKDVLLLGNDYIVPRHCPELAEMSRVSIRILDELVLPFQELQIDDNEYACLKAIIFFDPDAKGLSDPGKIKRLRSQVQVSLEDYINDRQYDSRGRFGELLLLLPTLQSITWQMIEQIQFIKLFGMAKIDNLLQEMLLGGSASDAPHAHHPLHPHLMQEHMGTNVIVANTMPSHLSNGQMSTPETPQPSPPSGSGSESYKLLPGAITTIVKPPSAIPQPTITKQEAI
Experimental: a. […] Fold induction of CAT activity by transfected HNF-4I is determined by evaluating CAT activity in the presence of pSG5-HNF-4I as compared with pSG5 plasmid and as function of respective fatty acids added to the culture medium as indicated. The figure summarizes 3-4 independent experiments for each fatty acid. Mean ± S.E.
b. […] Fold induction refers to CAT activity in cells incubated with 3,3,12,12-tetramethyl-tetradecanedioic acid (∘), 3,3,14,14-tetramethyl-hexadecanedioic acid (□) and 3,3,16,16-tetramethyl-octadecanedioic acid (Δ) proligands normalized to the activity in cells incubated in the absence of added proligands.
COS-7 cells cotransfected for 6 h with the (C3P)3-TK-CAT reporter plasmid (5 μg) and with either the pSG5-HNF-4α expression plasmid ([…]) or the pSG5 plasmid (0.025 μg) added by calcium phosphate precipitation were cultured in serum free medium with fatty acids (complexed with albumin in a molar ratio of 6:1) added as indicated. β-Galactosidase expression vector pRSGAL (1 μg) added to each precipitate served as an internal control for transfection. The (C3P)3-TK-CAT construct was prepared by inserting a synthetic oligonucleotide encompassing the (−87/−66) Apo CIII promoter sequence (5′-[…]-3′) flanked by HindIII restriction site into pBLCAT2^47 upstream of the −105 bp thymidine kinase promoter. The construct containing three copies of the synthetic oligonucleotide in the direct orientation was selected and confirmed by sequencing.
The intracellular effect of HNF-4α ligands on HNF-4α mediated transcription was evaluated in COS-7 cells cotransfected with an expression vector for HNF-4α and with a CAT reporter plasmid driven by a thymidine kinase promoter and enhanced by one to three C3P copies of the apo CIII gene promoter. Transfected cells were incubated in the presence of free fatty acids and xenobiotic amphipathic carboxylates representing agonistic or antagonistic HNF-4α proligands.

HNF-4α [3] = target: T2, HNF-4α; experiment: Gel mobility shift assay: His-HNF-4α binding to C3P apo CIII promoter oligonucleotide; type: biochemical; set-up: The full length HNF-4α1 cDNA cloned into 6His-pET11d vector was expressed in E.coli BL21 (DE3)plysS; 6His; made in house; host or cells: E. coli BL21 (DE3)plysS; details: for direct effect on HNF-4α (summary): summary statement of Example 4
Experimental: a. His-HNF-4I (14 ng) binding to C3P in the absence (lane 1) or presence of 10 μM each of myristoyl(14:0)-CoA (lane 2) or palmitoyl(16:0)-CoA (lane 3).
b. His-HNF-4I (20 ng) binding to C3P in the absence (lane 1) or presence of 10 μM each of stearoyl(18:0)-CoA (lane 2) or linolenoyl(18:3, w-3)-CoA (lane 3).
c. Activation of His-HNF-4I (14 ng) binding to C3P by increasing concentrations of myristoyl(14:0)-CoA. The gel section containing radiolabeled C3P bound to His-HNF-4I dimer is shown.
His-HNF-4α and acyl-CoA (as indicated) were preincubated for 30 min at 22° C. in 11 mM Hepes (pH 7.9) containing 50 mM KCl, 1 mM dithiothreitol. 2.5 mM MgCl2, 10% glycerol, 1 μg of poly(dI-dC) in a final volume of 20 μl. ^32P-labeled oligonucleotide (0.1 ng) consisting of the human C3P apo CIII promoter sequence,(−87/−66)^6 was then added, and incubation was continued for an additional 15 min. Protein-DNA complexes were resolved by 5% nondenaturing polyacrylamide gel in 0.6×TBE and quantitated by PhosphorImager analysis.
HNF-4α activity as a function of binding of long chain acyl-CoAs was evaluated by studying the binding of HNF-4α to its cognate C3P element of the apo CIII promoter sequence (−87/−66)^6 in the presence or absence of added acyl-CoAs of variable chain length, degree of saturation, and degree of substitution. Binding was verified by using a gel mobility shift assay. […] Activation was concentration dependent and maximal in the presence of myristoyl(14:0)-CoA added within a concentration range required for its binding to HNF-4α.

[4] = competition with 8 nM [3H]palmitoyl(16:0)-CoA, GST-HNF-4α(LBD) or His-HNF-4α, read-out: EC50 (50% specific competition)

| Structure (SMILES) | EC50 (HNF-4α [1]; [4]) | EC50 (HNF-4α [2]) | also measured |
| --- | --- | --- | --- |
| CC(C)Cc1ccc(C(C)C(=O)O)cc1 (centres unmarked) [Ibuprofen, reference compound] | 40 µM |  |  |
| CC(C)(Oc1ccc(C2CCCc3ccccc32)cc1)C(=O)O (centres unmarked) [Nafenopin, reference compound] | 90 µM | 160 µM |  |
| CCCCCCCC/C=C\CCCCCCCC(=O)SCCNC(=O)CCNC(=O)[C@H](O)C(C)(C)COP(=O)(O)OP(=O)(O)OC[C@H]1O[C@@H](n2cnc3c(N)ncnc32)[C@H](O)[C@@H]1OP(=O)(O)O [Oleoyl(18:1)-CoA] | 1.4 µM |  |  |
| CC(C)(Oc1ccc(CCNC(=O)c2ccc(Cl)cc2)cc1)C(=O)O [Bezafibrate, reference compound] |  | 260 µM | EC50 (HNF-4α [1]): 90 µM |
| CC(C)(COP(=O)(O)OP(=O)(O)OC[C@H]1O[C@@H](n2cnc3c(N)ncnc32)[C@H](O)[C@@H]1OP(=O)(O)O)[C@@H](O)C(=O)NCCC(=O)NCCS [free CoA] |  |  | binding to HNF-4α (in words) (HNF-4α [1]; GST-HNF-4α(LBD) or His-HNF-4α): inactive |
| CC(C)(CCCCCCCCC(C)(C)CC(=O)O)CC(=O)O [3,3,12,12-tetramethyl-tetradecanedioic acid] | 40 µM | > 300 µM |  |
| CC(C)(CCCCCCCCCCCCC(C)(C)CC(=O)O)CC(=O)O [3,3,16,16-tetramethyl-octadecanedioic acid] | 8 µM | 150 µM | inhibition of HNF-4α transcriptional activity, effectiveness in words (HNF-4α [2]): Highly effective |
| CCCCCCCCCCCC(=O)SCCNC(=O)CCNC(=O)[C@H](O)C(C)(C)COP(=O)(O)OP(=O)(O)OC[C@H]1O[C@@H](n2cnc3c(N)ncnc32)[C@H](O)[C@@H]1OP(=O)(O)O [Dodecanoyl(12:0)-CoA, reference compound] | 2.3 µM |  |  |
| CCCCC/C=C\C/C=C\CCCCCCCC(=O)SCCNC(=O)CCNC(=O)[C@H](O)C(C)(C)COP(=O)(O)OP(=O)(O)OC[C@H]1O[C@@H](n2cnc3c(N)ncnc32)[C@H](O)[C@@H]1OP(=O)(O)O [Linoleoyl(18:2)-CoA] | 1.9 µM |  |  |
| CC/C=C\C/C=C\C/C=C\C/C=C\C/C=C\C/C=C\CCC(=O)SCCNC(=O)CCNC(=O)[C@H](O)C(C)(C)COP(=O)(O)OP(=O)(O)OC[C@H]1O[C@@H](n2cnc3c(N)ncnc32)[C@H](O)[C@@H]1OP(=O)(O)O [Docosahexaenoyl(22:6)-CoA] | 1.6 µM |  | direct effect on HNF-4α (summary) (HNF-4α [3]): direct inhibition |
| CC/C=C\C/C=C\C/C=C\CCCCCCCC(=O)SCCNC(=O)CCNC(=O)[C@H](O)C(C)(C)COP(=O)(O)OP(=O)(O)OC[C@H]1O[C@@H](n2cnc3c(N)ncnc32)[C@H](O)[C@@H]1OP(=O)(O)O [Linolenoyl(18:3)-CoA] |  |  | effect on His-HNF-4α binding to C3P oligonucleotide (HNF-4α [3]; gel mobility shift, 10 μM acyl-CoA (FIG. 2)): potent inhibition; direct effect on HNF-4α (summary) (HNF-4α [3]): direct inhibition |
| CC/C=C\C/C=C\C/C=C\C/C=C\C/C=C\CCCC(=O)SCCNC(=O)CCNC(=O)[C@H](O)C(C)(C)COP(=O)(O)OP(=O)(O)OC[C@H]1O[C@@H](n2cnc3c(N)ncnc32)[C@H](O)[C@@H]1OP(=O)(O)O [Eicosapentaenoyl(20:5)-CoA] | 0.6 µM |  | direct effect on HNF-4α (summary) (HNF-4α [3]): direct inhibition |
| CC(C)(CCCCCCCCCCC(C)(C)CC(=O)O)CC(=O)O [3,3,14,14-tetramethyl-hexadecanedioic acid] | 8 µM | 155 µM | inhibition of HNF-4α transcriptional activity, effectiveness in words (HNF-4α [2]): Highly effective |
